This is an account of results in patent publication US6528528B2 (Warner-Lambert Company, priority 1997, dated 2003).

Data set [1] deals with T1, rabbit reticulocyte 15-LO (Oryctolagus cuniculus, UniProt P12530).
T1 construct: Fifteen-lipoxygenase was obtained from phenylhydrazine-treated rabbits and purified per the method of Rapoport; from tissue; host or cells: reticulocytes of phenylhydrazine-treated rabbits
T1 sequence (P12530 1-663): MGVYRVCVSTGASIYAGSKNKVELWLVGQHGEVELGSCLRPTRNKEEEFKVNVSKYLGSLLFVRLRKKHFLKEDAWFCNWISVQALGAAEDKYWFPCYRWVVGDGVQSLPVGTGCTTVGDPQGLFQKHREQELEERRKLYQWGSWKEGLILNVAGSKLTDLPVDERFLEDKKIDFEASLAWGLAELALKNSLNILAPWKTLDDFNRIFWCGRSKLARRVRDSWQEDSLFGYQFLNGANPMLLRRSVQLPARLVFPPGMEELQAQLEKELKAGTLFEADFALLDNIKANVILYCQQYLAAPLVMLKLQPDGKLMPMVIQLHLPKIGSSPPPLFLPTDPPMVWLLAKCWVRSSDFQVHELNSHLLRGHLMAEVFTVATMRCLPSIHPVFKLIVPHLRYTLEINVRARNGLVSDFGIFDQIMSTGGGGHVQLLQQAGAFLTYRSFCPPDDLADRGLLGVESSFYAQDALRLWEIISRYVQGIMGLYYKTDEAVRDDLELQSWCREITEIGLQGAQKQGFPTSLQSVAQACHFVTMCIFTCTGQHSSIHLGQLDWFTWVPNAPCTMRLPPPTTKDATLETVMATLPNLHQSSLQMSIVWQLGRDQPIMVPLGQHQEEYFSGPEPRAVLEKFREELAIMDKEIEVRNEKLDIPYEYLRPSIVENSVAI
As to the kind of experiment: Rabbit Reticulocyte 15-LO Assay (h15LO). As to conditions: for IC50: 2U rabbit reticulocyte 15-LO, 174 μM linoleic acid, 15 minutes at 4° C.; for h15LO, value given as bare %: concentration not given. It counts as biochemical. The method, boiled down:
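Linoleic acid oxidation to 13-HPODE measured at 4° C. over 15 minutes, using 174 μM substrate and 2U enzyme purified from phenylhydrazine-treated rabbits in PBS/0.2% Na cholate. Product peak areas calibrated with authentic 13-HODE; inhibition expressed versus maximal reaction.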

Where [2] appears, read: Table 1, read-out: h15LO % Inhibition at 10 μM.

Like-named read-outs stand apart in the source and are kept apart here.

Compound `Cc1ccc(C(=O)Nc2ccccc2)cc1N` [Example 1, 3-Amino-4-methyl-N-phenyl-benzamide] registered a melting point of 149 to 151 °C. `COc1ccc(C(=O)Nc2ccc(Cl)cc2)cc1N` [Example 2, 3-Amino-4-methoxy-N-(4-chlorophenyl)-benzamide]: the melting point was 191 to 192 °C. In data set [1] (Table 1), this compound came in with an IC50 of 290 nM.

`COc1ccc(C(=O)Nc2cccnc2)cc1N` [Example 5, 3-Amino-4-methoxy-N-(3-pyridyl)-benzamide] yielded a melting point of 193 to 196 °C. This compound gave an IC50 in data set [1] (Table 1) of 38 nM. In turn, `COc1ccc(C(=O)Nc2ccc(C)c(C)c2)cc1N` [Example 6, 3-Amino-4-methoxy-N-(3,4-dimethylphenyl)-benzamide] came in with a melting point of 138 to 142 °C. The inhibition at 10 µM in data set [1] (setting [2]) worked out at 79%. The compound `COc1ccc(C(=O)Nc2ccc(C)cc2)cc1N` [Example 7, 3-Amino-4-methoxy-N-(4-methylphenyl)-benzamide] returned a melting point of 190 to 194 °C. In addition, in data set [1] (setting [2]), the inhibition at 10 µM was determined as 67%.

Take `COc1ccc(C(=O)Nc2ccc(F)cc2)cc1N` [Example 8, 3-Amino-4-methoxy-N-(4-fluorophenyl)-benzamide]: the melting point lay in the range of 164 to 167 °C. In data set [1] (Table 1), this compound displayed an IC50 of 157 nM. The compound `Nc1cc(C(=O)Nc2ccccc2)ccc1F` [Example 9, 3-Amino-4-fluoro-N-phenyl-benzamide] came in with a melting point of 167 to 170 °C. In addition, the inhibition at 10 µM in data set [1] (setting [2]) came to 38%. Compound `CCOc1ccc(C(=O)Nc2ccccc2)cc1N` [Example 10, 3-Amino-4-ethoxy-N-phenyl-benzamide] came in with a melting point of 189 to 190 °C. In data set [1] (setting [2]), the inhibition at 10 µM stood at 42%. Take `COc1ccc(C(=O)Nc2cc(C)cc(C)c2)cc1N` [Example 11, 3-Amino-4-methoxy-N-(3,5-dimethylphenyl)-benzamide]: the melting point was in the range of 155 to 162 °C. The compound further displayed an IC50 in data set [1] (Table 1) of 390 nM.

Compound `COc1ccc(C(=O)Nc2ccc(C)c(Cl)c2)cc1N` [Example 12, 3-Amino-4-methoxy-N-(3-chloro-4-methylphenyl)-benzamide] registered a melting point of 153 to 157 °C. This compound also registered an IC50 in data set [1] (Table 1) of 73 nM. `Nc1cc(C(=O)Nc2ccccc2)ccc1Cl` [Example 13, 3-Amino-4-chloro-N-phenyl-benzamide] returned a melting point of 194 to 197 °C.

For `COc1ccc(C(=O)Nc2ccc(F)cc2F)cc1N` [Example 14, 3-Amino-4-methoxy-N-(2,4-difluorophenyl)-benzamide], the melting point was 166 to 168 °C. In data set [1] (setting [2]), the inhibition at 10 µM came to 68%. With `COc1ccc(C(=O)Nc2ccc(F)c(F)c2)cc1N` [Example 15, 3-Amino-4-methoxy-N-(3,4-difluorophenyl)-benzamide], the melting point was 171 to 172 °C. Moreover, half-maximal inhibition in data set [1] (Table 1) (IC50) was put at 9 nM. The compound `COc1ccc(C(=O)Nc2cccc(Cl)c2)cc1N` [Example 16, 3-Amino-4-methoxy-N-(3-chlorophenyl)-benzamide] showed a melting point of 144 to 146 °C. Also, the IC50 in data set [1] (Table 1) came to 79 nM.

On to `CCc1ccc(C(=O)Nc2ccccc2)cc1N` [Example 17, 3-Amino-4-ethyl-N-phenyl-benzamide], for which the melting point was in the range of 111 to 113 °C. Further, the inhibition at 10 µM in data set [1] (setting [2]) came out at 65%. Regarding `CCc1ccc(C(=O)Nc2ccc(Cl)c(Cl)c2)cc1N` [Example 18, 3-Amino-4-ethyl-N-(3,4-dichlorophenyl)-benzamide], the melting point lay in the range of 115 to 117 °C. In data set [1] (Table 1), this compound registered a concentration for half-maximal inhibition (IC50) of 2510 nM. On to `CCc1ccc(C(=O)Nc2ccc(F)c(F)c2)cc1N` [Example 19, 3-Amino-4-ethyl-N-(3,4-difluorophenyl)-benzamide], for which the melting point was 108 to 110 °C. In data set [1] (Table 1), this compound gave an IC50 of 1100 nM. For `CSc1ccc(C(=O)Nc2ccccc2)cc1N` [Example 20, 3-Amino-4-methylsulfanyl-N-phenyl-benzamide], in that order: 143 to 145 °C and 203 nM. `Nc1cc(NC(=O)c2ccc(Cl)c(Cl)c2)ccc1F` [Example 22, 3,4-Dichloro-N-(3-amino-4-fluorophenyl)-benzamide] showed a melting point of 151 to 153 °C. The compound `COc1ccc(NC(=O)c2ccc(Cl)c(Cl)c2)cc1N` [Example 23, 3,4-Dichloro-N-(3-amino-4-methoxyphenyl)-benzamide] returned a melting point of 215 to 218 °C. Besides, 26 nM corresponded to half-maximal inhibition in data set [1] (Table 1) (IC50). On to `COc1ccc(NC(=O)Nc2ccccc2)cc1N` [Example 24, 1-(3-Amino-4-methoxyphenyl)-3-phenyl-urea], for which the melting point is 174 to 175 °C. Compound `O=C(Nc1ccccc1)c1cccc(Nc2ccccc2)c1` [Example 25, 3-Phenylamino-N-phenyl-benzamide] had a melting point of 134 to 135 °C. Besides, in data set [1] (Table 2), inhibition was half-maximal at 6430 nM (IC50).

`COc1ccccc1Nc1cccc(C(=O)Nc2ccccc2)c1` [Example 27, 3-(2-Methoxy-phenylamino)-N-phenyl-benzamide] returned a melting point of 153 to 154 °C. Also, the inhibition at 10 µM in data set [1] (0.25 h, Table 2, read-out: h15LO % @ 10 μM) was found to be 48%. Take `COc1ccc(NC(=O)c2ccccc2)cc1Nc1ccccc1` [Example 49, N-[3-(Phenylamino)-4-methoxy-phenyl]-benzamide]: the melting point was in the range of 209 to 210 °C. `COc1ccc(C(=O)Nc2cccnc2)cc1NC(=S)Nc1ccc(Cl)c(Cl)c1` [Example 100, 3-[3-(3,4-Dichlorophenyl)-thioureido]-4-methoxy-N-pyridin-3-yl-benzamide] returned a melting point of 179 to 180 °C. `COc1ccc(C(=O)Nc2cc(C)cc(C)c2)cc1NC(=S)Nc1cccc(C)c1` [Example 103, N-(3,5-Dimethylphenyl)-4-methoxy-3-(3-m-tolyl-thioureido)-benzamide] returned a melting point of 188 to 189 °C. With `COc1ccc(C(=O)Nc2ccc(Cl)c(Cl)c2)cc1NS(=O)(=O)c1cc(Cl)cc(Cl)c1` [Example 117, 3-(3,5-Dichloro-benzenesulfonylamino)-4-methoxy-N-(3,4-dichlorophenyl)-benzamide], the melting point was > 230 °C (dec.). In the case of `CCOC(=O)c1cccc(NC(=O)c2ccc(OC)c(NCc3cccs3)c2)c1` [Example 263, 3-{4-Methoxy-3-[(thiophen-2-ylmethyl)-amino]-benzoylamino}-benzoic Acid Ethyl Ester], the “h15LO, value given as bare %” value in data set [1] (Table 2) is given as 53.51%. `COc1ccc(NC(=O)c2ccc(Cl)c(Cl)c2)cc1NCc1cccs1` [Example 264, 3,4-Dichloro-N-{4-methoxy-3-[(thiophen-2-ylmethyl)-amino]-phenyl}-benzamide] yielded an IC50 in data set [1] (Table 2) of 37 nM. `COc1ccc(NC(=O)c2ccc(F)c(F)c2)cc1NCc1cccs1` [Example 265, 3,4-Difluoro-N-{4-methoxy-3-[(thiophen-2-ylmethyl)-amino]-phenyl}-benzamide]: in data set [1] (Table 2), the “h15LO, value given as bare %” value was 98.89%. Consider `COc1ccc(C(=O)Nc2ccccc2)cc1NCc1ccc2c(c1)OCO2` [Example 266, 3-[(Benzo[1,3]dioxol-5-ylmethyl)-amino]-4-methoxy-N-phenyl-benzamide], for which it took 197 nM to reach half-maximal inhibition in data set [1] (Table 2) (IC50). Still for that read-out and setting: as for `COc1ccc(C(=O)Nc2ccccc2)cc1NCc1cc(F)cc(F)c1` [Example 267, 4-Methoxy-3-(3,5-difluoro-benzylamino)-N-phenyl-benzamide], the figure is 198 nM; as for `COc1ccc(C(=O)Nc2ccccc2)cc1NCc1ccc(N(C)C)cc1` [Example 268, 3-(4-Dimethylamino-benzylamino)-4-methoxy-N-phenyl-benzamide], 213 nM. In data set [1] (Table 2), `COc1ccc(C(=O)Nc2ccccc2)cc1NCc1cccc(C(F)(F)F)c1` [Example 269, 4-Methoxy-3-(3-trifluoromethyl-benzylamino)-N-phenyl-benzamide] showed an IC50 of 221 nM. For `COc1ccc(C(=O)Nc2ccccc2)cc1NCc1ccccc1F` [Example 270, 4-Methoxy-3-(2-fluoro-benzylamino)-N-phenyl-benzamide], the IC50 in data set [1] (Table 2) was 241 nM. In data set [1] (Table 2), `COc1ccc(C(=O)Nc2ccccc2)cc1NCc1ccc2c(c1)OCCO2` [Example 271] registered an IC50 of 302 nM.

In the case of `COc1ccc(C(=O)Nc2ccccc2)cc1NCc1ccc(O)cc1` [Example 272, 3-(4-Hydroxy-benzylamino)-4-methoxy-N-phenyl-benzamide], in data set [1] (Table 2), the half-maximal inhibitory concentration (IC50) amounted to 304 nM.

As for `COc1ccc(C(=O)Nc2ccccc2)cc1NCc1cccc(C)c1` [Example 273, 4-Methoxy-3-(3-methyl-benzylamino)-N-phenyl-benzamide], the IC50 in data set [1] (Table 2) amounted to 385 nM. For `COc1ccc(C(=O)Nc2ccccc2)cc1NCc1ccc(F)c(F)c1` [Example 274, 3-(3,4-Difluoro-benzylamino)-4-methoxy-N-phenyl-benzamide], in data set [1] (Table 2), the IC50 was 391 nM.

What is called melting point is the temperature of the solid-liquid transition. One may read the IC50 as the concentration needed to halve the response being measured.
